Where two headings read alike, the source gives them in different places.
How the values were obtained:
[1] = system: patients with obstructive sleep apnea; assay: Table 1 summary of efficacy and side effects in sleep apnea, compared with acetazolamide, topiramate and zonisamide data; format: in vivo, human; design: key to Side effect paresthesia (P) (scale 0-3) / Side effect cognitive dysfunction (C) (scale 0-3): 1 = none; 2 = low; 3 = medium; 4 = high; Reduction in AHI: concentration or dose not given beside the values; conditions: for Side effect total rating (T) (scale 0-3): T = (P + 2C)/3, Table 1; for Reduction in AHI: own data: sultiame Examples 1 and 2 (n = 3); for Reduction in AHI / Efficacy AHI reduction (rating 0-3) / Side effect cognitive dysfunction (C) (scale 0-3) / Side effect paresthesia (P) (scale 0-3): acetazolamide Example 2; for Efficacy AHI reduction (rating 0-3) / Side effect cognitive dysfunction (C) (scale 0-3) / Side effect paresthesia (P) (scale 0-3): own data: sultiame Examples 1 and 2, topiramate unpublished data
From the text: The results from Example 1 and 2 are summarized in table 1, below, where the results are further compared with data reflecting the effect of acetazolamide, topiramate and zonisamide in sleep apnea.

[2] = system: patients with obstructive sleep apnea; design: key to Side effect paresthesia (P) (scale 0-3) / Side effect cognitive dysfunction (C) (scale 0-3): 1 = none; 2 = low; 3 = medium; 4 = high; conditions: cited from earlier work; for Reduction in AHI / Reported adverse events. Frequency (n/patient): literature: acetazolamide meta data from 9 publications (n = 268), zonisamide Eskandari et al. (n = 13); for Efficacy AHI reduction (rating 0-3) / Side effect cognitive dysfunction (C) (scale 0-3) / Side effect paresthesia (P) (scale 0-3): literature: acetazolamide meta data, zonisamide Eskandari et al.
Carbonic anhydrase (CA) = assay: Carbonic anhydrase activity in venous blood from a patient with obstructive sleep apnea (pH curve AUC); format: biochemical, human; conditions: diluted hemolysed blood of one OSA patient
Method: Carbonic anhydrase (CA) activity was assessed in human plasma from an apnea patient using a method previously described in detail (Teng et al, Sleep 2016). […] The blood sample (antecubital vein) was collected in an EDTA-coated tube, stored within 30 min at −20° C. and subsequently transferred to −70° C. Prior to analysis, the sample was slowly thawed, refrozen and re-thawed on ice in order to obtain hemolysis. The assay was adapted from a method previously described by Everaert et al (ref in Teng et al, Sleep 2016). In detail, a buffer consisting of 0.02M HEPES, 0.02M MES, 0.035M KCl and 0.015M NaCl with a balanced capacity in the pH 6-8 range was prepared. The subsequent analysis was conducted on ice in order to maintain a temperature of around 0-1° C. A separate solution constituting of 200 ml of 0-1° C. distilled water was continuously flushed with 100% CO2 and kept at 0-1° C. for at least 30 min. […] The pH in the reaction vessel was continuously monitored at 1 Hz during 120 s. […] The intra- and inter assay variability was 5.0% and 7.6%, respectively. pH curves were plotted and analysed (FIG. 1). In order to reflect time of the catalysed reaction the area under the curve (AUC, range 802-837) was calculated as the sum of all pH assessments during 120 sec. […]

[3] = system: subjects with obstructive sleep apnea; assay: Long term effect of sultiame and acetazolamide in obstructive sleep apnea, sleep studies (Example 2); conditions: for AHI at follow-up: sultiame 200 mg single daily dose for three months
[4] = system: patient with obstructive sleep apnea; assay: Repeated dosing of sultiame in obstructive sleep apnea, repeated sleep studies (Example 1); format: in vivo, human; conditions: for central AHI: baseline 3.2 n/h; for obstructive AHI: baseline 12.4 n/h; for AHI: baseline 16.6 n/h; for lowest saturation: baseline 87%; for mean oxygen saturation: baseline 95.3%
From the text: Person, BMI 28.3 kg/m^2. The subject was a non-smoker and there was no history of cardiovascular or metabolic disease and no regular medication. This subject presented with a history of snoring, witnessed apneas, and increased daytime sleepiness. They had previously tested both CPAP and mandibular advancement therapy with moderate regression of symptoms. The subject had experienced intolerable side effects including dry airways and sneezing caused by CPAP therapy. They had experienced discomfort from the temporomandibular joints following use of an intraoral device for mandibular advancement.
There had been a weight gain corresponding to 2 kg during the last three years.
It was decided that sultiame should be tested. Repeated sleep studies were undertaken before and after therapy with sultiame.
This second assessment provided the following values: AHI 9.8 n/h (central AHI 2.2 n/h and obstructive AHI 7.6/h), mean oxygen saturation 95.8%, lowest saturation 89%, and periodic breathing pattern 10.1 minutes.
There had been a weight reduction corresponding to 1.2 kg

healthy volunteers = assay: Clinical trial on tolerability of a high dose of sultiame in healthy volunteers; format: in vivo, human
Method: Most earlier clinical trials have been carried out in patients diagnosed with epilepsy. The goal of this study was to investigate the tolerability of sultiame in non-epileptic patients.
The trial involved 16 healthy volunteers. […] The administration was carried out without ramping up the dose. There were only two reports of adverse events in this group of 16 volunteers (32 dosing occasions, 12.5% of individuals or 6.25% of dosing occasions). These adverse events were limited to short periods of headache, which occurred when the drug was administered without food. The headache resolved within a short time frame.

[5] = cited from earlier work
[6] = own data: acetazolamide Example 2, topiramate unpublished data (n = 4)
[7] = topiramate unpublished data (n = 4)
[8] = 100 mg orally once daily, after 5 days
[9] = sultiame 200 mg daily for three months, both subjects

## CC1(C)O[C@@H]2[C@@H](CO[C@@]3(COS(N)(=O)=O)OC(C)(C)O[C@@H]23)O1 [Topiramate]
[1]
  Side effect total rating (T) (scale 0-3): 3.7
  Efficacy AHI reduction (rating 0-3): 1 (5-<30% = 1)
  Side effect cognitive dysfunction (C) (scale 0-3): 4
  Side effect paresthesia (P) (scale 0-3): 3
[1]; [6]
  Reported adverse events. Frequency (n/patient): 0.75/patient
[1]; [7]
  Reduction in AHI: 28.0%
[1]; topiramate unpublished data (n = 4), listed as topiramate
  Reduction in AHI: 28.0%

## NS(=O)(=O)Cc1noc2ccccc12 [Zonisamide]
[1]
  Side effect total rating (T) (scale 0-3): 3.3
[2]
  Reduction in AHI: 20.7%
  Reported adverse events. Frequency (n/patient): 0.44/patient
  Efficacy AHI reduction (rating 0-3): 1 (5-<30% = 1)
  Side effect cognitive dysfunction (C) (scale 0-3): 4
  Side effect paresthesia (P) (scale 0-3): 2
[2]; listed as zonisamide
  Reduction in AHI: 20.7%

## CC(=O)Nc1nnc(S(N)(=O)=O)s1 [Acetazolamide]
Carbonic anhydrase (CA); 0-1° C., 120 s, activity without compound 32, concentrations 1×10^−11 to 5×10^−9 M
  CA activity after compound (peak inhibition), arbitrary units 850-AUC: 19.5 units
Carbonic anhydrase (CA); reduction from 32 units
  reduction of CA activity: 39%
[1]
  Side effect total rating (T) (scale 0-3): 2.7
  Efficacy AHI reduction (rating 0-3): 1 (5-<30% = 1)
  Side effect cognitive dysfunction (C) (scale 0-3): 2
  Side effect paresthesia (P) (scale 0-3): 4
[1]; [6]
  Reported adverse events. Frequency (n/patient): 1.0/patient
[1]; [7]
  Reduction in AHI: 28.0%
[3]; acetazolamide 500 mg o.d., both subjects
  side effects: paraesthesia: both subjects developed peripheral paraesthesia
[3]; first subject, acetazolamide 500 mg o.d., 10 days after start, before 16.6 n/h
  oxygen desaturation index (ODI): 12.6 n/h
[3]; first subject, acetazolamide 500 mg o.d., 10 days after start, before 17.4 n/h
  AHI: 13.4 n/h
[3]; second subject, acetazolamide 500 mg o.d., 16 days after start, before 12.6 n/h
  oxygen desaturation index (ODI): 9.2 n/h
[3]; second subject, acetazolamide 500 mg o.d., 16 days after start, before 15.2 n/h
  AHI: 10.2 n/h
[2]
  Reduction in AHI: 37.3%
  Reported adverse events. Frequency (n/patient): 1.08/patient
  Efficacy AHI reduction (rating 0-3): 2 (30-<50% = 2)
  Side effect cognitive dysfunction (C) (scale 0-3): 2
  Side effect paresthesia (P) (scale 0-3): 4
[2]; listed as acetazolamide
  Reduction in AHI: 37.3%

## NS(=O)(=O)c1ccc(N2CCCCS2(=O)=O)cc1 [Sultiame]
[1]
  Side effect total rating (T) (scale 0-3): 1
  Efficacy AHI reduction (rating 0-3): 3 (≥50% = 3)
  Side effect cognitive dysfunction (C) (scale 0-3): 1
  Side effect paresthesia (P) (scale 0-3): 1
[1]; [7]
  Reduction in AHI: 62.7%
[1]; topiramate unpublished data (n = 4), listed as sultiame
  Reduction in AHI: 62.7%
[1]; sultiame, Examples 1 and 2 (n = 3)
  Reported adverse events. Frequency (n/patient): 0% (AHI reduction 0-5 < % = 0)
[1]; sultiame, patients with obstructive sleep apnea, Examples 1 and 2
  adverse effects after administration: not observed
[4]; [8]
  daytime symptoms of sleepiness: general resolution of daytime symptoms of sleepiness
  central AHI: 2.2 n/h
  obstructive AHI: 7.6 h⁻¹
  AHI: 9.8 n/h
  lowest saturation: 89%
  mean oxygen saturation: 95.8%
[4]; 100 mg orally once daily, after 5 days, baseline 14.3 minutes
  periodic breathing pattern: 10.1 min
[4]; 200 mg once daily for 14 days
  central AHI: 1.2 n/h
  obstructive AHI: 3.0 n/h
  AHI: 4.2 n/h
  lowest saturation: 90%
  mean oxygen saturation: 96.7%
[4]; 200 mg once daily for 14 days, baseline 14.3 minutes
  periodic breathing pattern duration: 2.8 min
[4]; 200 mg once daily versus 100 mg once daily
  dose dependence of AHI reduction: reduced AHI in a dose-dependent manner
[3]; first subject, day 89, before 17.4 n/h
  AHI at follow-up: 7.6 n/h
[3]; second subject, day 90, before 15.2 n/h
  AHI at follow-up: 6.5 n/h
[3]; sultiame 200 mg daily for three months, both cases
  daytime sleepiness: reduction of daytime sleepiness
[3]; [9]
  side effects: paraesthesia: not reported
  snoring: reduced snoring
  tolerability: well tolerated by both subjects
[3]; sultiame 200 mg daily versus acetazolamide 500 mg o.d.
  effectiveness in decreasing sleep apnea versus acetazolamide: considerably more effective than acetazolamide
Healthy volunteers; 200 mg without ramping up the dose, healthy volunteers
  tolerability at high doses: excellent tolerability
Healthy volunteers; 200 mg, 16 volunteers, 32 dosing occasions
  reports of adverse events (short periods of headache, drug administered without food): two
Healthy volunteers; 200 mg, 32 dosing occasions, 16 healthy volunteers
  adverse events, % of dosing occasions: 6.25%
Healthy volunteers; 200 mg, two times (with and without prior food intake), 16 healthy volunteers
  adverse events, % of individuals: 12.5%
[5]
  half-life in plasma: about 24 hrs

— patent publication US10617694B2 (priority 2016, dated 2020)
